# How the values were obtained:
# tilapia NIL cells [1] = test: SL gene expression in primary NIL cell culture (qPCR); format: cell-based, Nile tilapia (Oreochromis niloticus); conditions: for effect on basal SL gene expression: 10 µM test substance
# Method: (§1) To examine the direct effects of GCG on SL release and gene expression in the pituitary, tilapia NIL cells were prepared by the controlled trypsin/DNase II digestion method as described previously ([30]). After that, NIL cells were seeded in poly-D-lysine precoated 24-well plates at ~1.5 × 10^6 cells/mL/well and incubated with test substances for the duration as indicated. After drug treatment, SL release in conditioned medium was immediately determined by the enzyme-linked immunosorbent assay (ELISA) with a detectable range from 0.5 to 500 ng/mL for SL. The assay was optimized in our laboratory by utilizing a polyclonal antibody against tilapia SL ([31]) and a SL-biotin conjugate (GenScript, Nanjing, China). Meanwhile, the cells were rinsed with cold PBS before being lysed by TRIzol reagent (Life Technologies) to measure SL gene expression. After cDNA synthesis, qPCR assays were performed using the primers specific for tilapia SL (forward primer: 5’ […] 3’ and reverse primer: 5’ […] 3’). The same qPCR conditions were maintained as described above, and gene expression levels were analyzed using the 2^−ΔΔCT method. In these experiments, β-actin was used as an internal control for normalizing genes of interest. It has been reported that β-actin is used to normalize SL gene expression in tilapia ([14]), goldfish ([32]), and red drum ([33]).
# (§2) For qPCR and ELISA assays, NIL cells were prepared from 30–40 individual fish in each experimental run. For cAMP and IP3 measurements, NIL cells were prepared from ~30 individual fish in each experimental run. For Ca^2+ signal measurements, NIL cells were prepared from 10–12 individual fish. For the Western blot analysis, NIL cells were prepared from ~30 individual fish in each experimental run. Three biological replicates were analyzed, and four technical repeats were performed per sample. All results are expressed as the mean ± SEM (N = 3) and analyzed with ANOVA followed by post-hoc Bonferroni’s test for multiple comparisons. A value of P < 0.05 was regarded as statistically significant. All analyses were performed with GraphPad Prism Software, Inc (San Diego, CA).
# tilapia NIL cells [2] = test: SL release in primary NIL cell culture (ELISA); format: cell-based, Nile tilapia (Oreochromis niloticus); conditions: for SL release, dose dependence: mean ± SEM (N = 3)
# Method: as §1, §2
# fish glucagon = conditions: ref [18]; cited from earlier work
# Method: Male Nile tilapia (O. niloticus) with a bodyweight range of 45-55 g were purchased from local aquaria and maintained in aerated 300-liter aquaria at 28°C under 12 h dark/12 h light photoperiod. During tissue sampling, the fish were sacrificed by spinosectomy after anesthesia with 0.05% MS222 (Sigma, St Louis, MO) according to the procedures approved by the Animal Ethics Committee of Sichuan University. The tilapia and human GCGs and the des-His1-[Nle9-Ala11-Ala16] GCG antagonist were synthesized by GL Biochem (Shanghai, China).
# tilapia GCGRa = test: CRE-luciferase reporter assay, HEK293 cells stably expressing tilapia GCGRa; format: cell-based, Nile tilapia (Oreochromis niloticus)
# Method: (§3) The open reading frames (ORFs) of tilapia Gcgra and Gcgrb were subcloned in the pcDNA3.1 (+) expression vector (Invitrogen) using high-fidelity Taq DNA polymerase (TOYOBO, Japan) and then HEK293 cell lines with stable expression of pcDNA3.1-GCGRa, and pcDNA3.1-GCGRb, respectively, were established in the presence of 500 µg/mL […] (Invitrogen). The expression of Gcgra and Gcgrb transcripts in these stably transfected cell lines was confirmed by qPCR, and the colonies with the same levels of Gcgra and Gcgrb mRNA expression were selected for subsequent studies. After that, HEK293 cells were co-transfected with the cAMP response element (CRE)-luciferase reporter plasmid, and Renilla luciferase plasmid (pTK-RL) (Promega, Madison, WI), encoding the Renilla luciferase protein, as the internal control using Lipofectamine in Opti-MEM (Invitrogen). […] The luciferase activity of cellular lysates was determined using a Dual-Glo luciferase assay kit (Promega), and the signal was read using a microplate reader (Fluostar OPTIMA, BMGLabtech). The luciferase activities in each treatment group were expressed as relative fold increase compared with the control group.
# (§4) Figure 3 Functional characterization of tilapia GCGRa and GCGRb expressed in HEK293 cells. […] All results are expressed as the mean ± SEM (N = 3).
# tilapia GCGRb = test: CRE-luciferase reporter assay, HEK293 cells stably expressing tilapia GCGRb; format: cell-based, Nile tilapia (Oreochromis niloticus); conditions: HEK293, CRE-luciferase (cAMP), 24 h treatment, 37°C, Luc ratio to Renilla, N = 3
# Method: as §3, §4
# rat hepatocytes [3] = conditions: ref Mine et al. ([59]); cited from earlier work
# Source text: Although pituitary GCG-mediated molecular signaling pathways remain largely unknown, GCG action in fish hepatocytes is mediated by the AC/cAMP/PKA pathway ([52], [55]). These findings promote us to investigate similar signaling mechanisms involved in GCGb action in tilapia pituitary cells. […] In contrast, both basal and GCGb-induced SL release and gene expression ...
# rat hepatocytes [4] = conditions: ref [57]; cited from earlier work
# GCGRb = conditions: ref [42]; cited from earlier work
# Source text: Identification of multiple types of Gcgrs raises a question of whether a given physiological response is mediated by either a specific receptor or multiple types of receptors. We examined the functional similarity and difference of the two tilapia GCGRs.
# [5] = 1 µM test substance with GCGb 10 nM, 24 h
# [6] = 10 µM test substance with GCGb 10 nM, 24 h
# [7] = 50 nM test substance with GCGb 10 nM (duration not given)
# [8] = 5 µM test substance with GCGb 10 nM (duration not given)
# [9] = 5 µM test substance with GCGb 10 nM, 24 h
compound,measurement,setting,value
Clc1ccc(C(c2ccc(Cl)cc2)n2cc[n+](CC(OCc3ccc(Cl)cc3Cl)c3ccc(Cl)cc3Cl)c2)cc1 (stereo not shown) [calmidazolium],effect on GCGb-stimulated SL mRNA expression,tilapia NIL cells [1]; [5],abolished
same,effect on GCGb-stimulated SL release,tilapia NIL cells [2]; [5],abolished
C=C[C@@]1(C)CC(=O)[C@]2(O)[C@@]3(C)[C@@H](O)CCC(C)(C)[C@@H]3[C@H](O)[C@H](OC(C)=O)[C@@]2(C)O1 [forskolin],"SL release, dose dependence","tilapia NIL cells [2]; 0.1–100 nM, 24 h",dose-dependently stimulated SL release
Cl.c1ccc(C2CCCC2NC2=NCCCCCCCCCCC2)cc1 (stereo not shown) [MDL12330A],effect on GCGb-stimulated SL mRNA expression,tilapia NIL cells [1]; [6],blocked
same,effect on basal SL gene expression,tilapia NIL cells [1]; 24 h,blocked the basal levels
same,effect on GCGb-stimulated SL release,tilapia NIL cells [2]; [6],blocked
same,effect on basal SL release,"tilapia NIL cells [2]; 10 µM test substance, 24 h",blocked the basal levels
O=S(=O)(NCCNC/C=C/c1ccc(Br)cc1)c1cccc2cnccc12 [H89],effect on GCGb-stimulated SL mRNA expression,tilapia NIL cells [1]; [6],blocked
same,effect on basal SL gene expression,tilapia NIL cells [1]; 24 h,blocked the basal levels
same,effect on GCGb-stimulated SL release,tilapia NIL cells [2]; [6],blocked
same,effect on basal SL release,"tilapia NIL cells [2]; 10 µM test substance, 24 h",blocked the basal levels
C/C=C(/C)C(=O)O[C@H]1C(C)=C2[C@H]([C@@H]1OC(=O)CCCCCCC)[C@@](C)(OC(C)=O)C[C@H](OC(=O)CCC)[C@@]1(O)[C@H]2OC(=O)[C@@]1(C)O [thapsigargin],effect on GCGb-stimulated SL mRNA expression,tilapia NIL cells [1]; [7],effective in blocking the stimulatory effect of GCGb on SL release and mRNA expression
same,effect on GCGb-stimulated SL release,tilapia NIL cells [2]; [7],effective in blocking the stimulatory effect of GCGb on SL release and mRNA expression
COC(=O)C1=C(C)NC(C)=C(C(=O)OC)C1c1ccccc1[N+](=O)[O-] [nifedipine],effect on GCGb-stimulated SL mRNA expression,tilapia NIL cells [1]; [8],effective in blocking the stimulatory effect of GCGb on SL release and mRNA expression
same,effect on GCGb-stimulated SL release,tilapia NIL cells [2]; [8],effective in blocking the stimulatory effect of GCGb on SL release and mRNA expression
CN([C@@H](Cc1ccc(OS(=O)(=O)c2cccc3cnccc23)cc1)C(=O)N1CCN(c2ccccc2)CC1)S(=O)(=O)c1cccc2cnccc12 [KN62],effect on GCGb-stimulated SL mRNA expression,tilapia NIL cells [1]; [9],abolished
same,effect on GCGb-stimulated SL release,tilapia NIL cells [2]; [9],abolished
CN(C)CCCn1cc(C2=C(c3c[nH]c4ccccc34)C(=O)NC2=O)c2ccccc21 [GF109203X],effect on GCGb-stimulated SL release,"tilapia NIL cells [2]; 20 µM test substance with GCGb 10 nM, 24 h",neither compound was able to block GCGb stimulated SL release
des-His1-[Nle9-Ala11-Ala16] GCG antagonist,effect on GCGb-stimulated SL release,tilapia NIL cells [2]; [5],stimulatory effect could be blocked
same,block of the action of fish glucagon,fish glucagon,could block the action of fish glucagon
C1CCC[C@H]2CCCN3CC[C@@H](CCCCCC[C@@H]4CCCN5CC[C@@H](CC1)O[C@@H]45)O[C@@H]23 [xestospongin C],effect on GCGb-stimulated SL mRNA expression,tilapia NIL cells [1]; [9],suppressed
same,effect on basal SL mRNA levels,"tilapia NIL cells [1]; 5 µM test substance, 24 h",suppressed
same,effect on GCGb-stimulated SL release,tilapia NIL cells [2]; [9],suppressed
same,effect on basal SL release,"tilapia NIL cells [2]; 5 µM test substance, 24 h",suppressed
"human GCG: human glucagon, synthesized by GL Biochem",potency at tilapia GCGRa relative to tilapia GCGa (fold less potent),tilapia GCGRa; fold less potent than tilapia GCGa,80 fold
same,EC50,"tilapia GCGRa; tilapia GCGRa, HEK293, CRE-luciferase (cAMP), 24 h treatment, 37°C, Luc ratio to Renilla, N = 3",240 nM
same,EC50,tilapia GCGRb,6.37 nM
"GCG: Glucagon, a 29 amino acid peptide hormone derived from proglucagon (cited work, species not stated)",Ca^2+ release,rat hepatocytes [3],can mediate Ca^2+ release from both intracellular Ca^2+ store and extracellular Ca^2+ influx
same,production of IP3,rat hepatocytes [4],induce the production of IP3
Cc1cc(C)c(S(=O)(=O)Nc2cccc(C(F)(F)F)c2)c(C)c1 [m-3M3FBS],"SL release, dose dependence",tilapia NIL cells [2]; 0.01–10 µM,dose-dependently stimulated SL release
COc1c(C[C@@H](C)OC(=O)Oc2ccc(O)cc2)c2c3c(C[C@@H](C)OC(=O)c4ccccc4)c(OC)c(=O)c4c(O)cc(OC)c(c5c(OC)cc(O)c(c1=O)c52)c43 [calphostin C],effect on GCGb-stimulated SL release,"tilapia NIL cells [2]; 20 nM test substance with GCGb 10 nM, 24 h",neither compound was able to block GCGb stimulated SL release
COc1ccc2c(c1)CC[C@@H]1[C@@H]2CC[C@]2(C)[C@@H](NCCCCCCN3C(=O)C=CC3=O)CC[C@@H]12 [U73122],effect on GCGb-stimulated SL mRNA expression,tilapia NIL cells [1]; [6],blocked the GCGb-stimulated SL release and mRNA expression
same,effect on GCGb-stimulated SL release,tilapia NIL cells [2]; [6],blocked the GCGb-stimulated SL release and mRNA expression
mouse GCG: mouse glucagon (cited work),activation of zebrafish GCGRb,GCGRb,potently activated
